Laboratory results reported in PubChem BioAssay (NCI).
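Briefly, cells in 96-well plates were exposed to five compound concentrations for 48 h, and endpoints were estimated by linear interpolation. GI50: concentration for 50% inhibition of growth. TGI: concentration producing complete growth inhibition.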

Legend:
Test in all cases: growth of human tumour cells (NCI), 48 h
786-0 renal = system: 786-0 renal
A498 renal = system: A498 renal
A549 NSCLC = system: A549 NSCLC
ACHN renal = system: ACHN renal
BT-549 breast = system: BT-549 breast
CAKI-1 renal = system: CAKI-1 renal
CCRF-CEM leukemia = system: CCRF-CEM leukemia
COLO 205 colon = system: COLO 205 colon
DU-145 prostate = system: DU-145 prostate
EKVX NSCLC = system: EKVX NSCLC
HCC-2998 colon = system: HCC-2998 colon
HCT-116 colon = system: HCT-116 colon
HCT-15 colon = system: HCT-15 colon
HL-60(TB) leukemia = system: HL-60(TB) leukemia
HOP-62 NSCLC = system: HOP-62 NSCLC
HOP-92 NSCLC = system: HOP-92 NSCLC
HS 578T breast = system: HS 578T breast
HT29 colon = system: HT29 colon
IGROV1 ovarian = system: IGROV1 ovarian
K-562 leukemia = system: K-562 leukemia
KM12 colon = system: KM12 colon
LOX IMVI melanoma = system: LOX IMVI melanoma
M14 melanoma = system: M14 melanoma
MALME-3M melanoma = system: MALME-3M melanoma
MCF7 breast = system: MCF7 breast
MDA-MB-231 breast = system: MDA-MB-231 breast
MDA-MB-435 = system: MDA-MB-435
MOLT-4 leukemia = system: MOLT-4 leukemia
NCI-H226 lung = system: NCI-H226 lung

## COc1ccc(C(=O)c2cc(OC)c3c(c2)OCO3)cc1O
786-0 renal
  GI50: 933 nM
  TGI: > 100000 nM
A498 renal
  GI50: 2340 nM
  TGI: 7500 nM
A549 NSCLC
  GI50: 614 nM
  TGI: > 100000 nM
ACHN renal
  GI50: 1570 nM
  TGI: > 100000 nM
BT-549 breast
  GI50: 3060 nM
  TGI: > 100000 nM
CAKI-1 renal
  GI50: 1410 nM
  TGI: > 100000 nM
CCRF-CEM leukemia
  GI50: 298 nM
  TGI: > 100000 nM
COLO 205 colon
  GI50: 7510 nM
  TGI: 21000 nM
DU-145 prostate
  GI50: 340 nM
  TGI: 3520 nM
EKVX NSCLC
  GI50: 19800 nM
  TGI: > 100000 nM
HCC-2998 colon
  GI50: 1720 nM
  TGI: > 31500 nM
HCT-116 colon
  GI50: 345 nM
  TGI: 9190 nM
HCT-15 colon
  GI50: 112 nM
  TGI: > 100000 nM
HL-60(TB) leukemia
  GI50: 119 nM
  TGI: 2240 nM
HOP-62 NSCLC
  GI50: 383 nM
  TGI: > 54200 nM
HOP-92 NSCLC
  GI50: 824 nM
  TGI: 52700 nM
HS 578T breast
  GI50: 190 nM
  TGI: > 32100 nM
HT29 colon
  GI50: 3180 nM
  TGI: > 57200 nM
IGROV1 ovarian
  GI50: 1180 nM
  TGI: > 100000 nM
K-562 leukemia
  GI50: 45.9 nM
  TGI: > 100000 nM
KM12 colon
  GI50: 50.5 nM
  TGI: 2640 nM
LOX IMVI melanoma
  GI50: 180 nM
  TGI: > 100000 nM
M14 melanoma
  GI50: 47.3 nM
  TGI: 5220 nM
MALME-3M melanoma
  GI50: 6720 nM
  TGI: > 100000 nM
MCF7 breast
  GI50: 332 nM
  TGI: 64000 nM
MDA-MB-231 breast
  GI50: 572 nM
  TGI: > 100000 nM
MDA-MB-435
  GI50: 22.1 nM
  TGI: 60.3 nM
MOLT-4 leukemia
  GI50: 617 nM
  TGI: > 100000 nM
NCI-H226 lung
  GI50: 2490 nM
